Laboratory results: the supplement of paper PMC10307832

What was measured:
Assay in all cases: relative viability (nuclei count vs DMSO), 5 days (fraction); higher = more cells survive
[1] = compound: CO[C@@H]1[C@H](N(C)C(=O)c2ccccc2)C[C@H]2O[C@]1(C)n1c3ccccc3c3c4c(c5c6ccccc6n2c5c31)C(=O)NC4 [Midostaurin] + COc1cccc2cc(-c3nc([C@H]4CC[C@H](C(=O)O)CC4)n4ncnc(N)c34)[nH]c12 [OSI-027] (partner 0.5 µM)
Outline: (§1)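 Each reported value is a median over duplicate plates. It expresses relative viability: treated-well nuclei count divided by vehicle-well nuclei count. Lung cancer cell lines in 1536-well plates were dosed by pin tool a day after seeding, alone with one drug or with a fixed anchor-drug dose plus five library-drug doses (not always all listed) in √10 steps, and nuclei were counted after 5 days.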

[2] = compound: COc1cc(-c2nn([C@H]3CC[C@H](N4CCN(C(C)=O)CC4)CC3)c3ncnc(N)c23)ccc1NC(=O)c1cc2ccccc2n1C + CC(=O)c1c(C)c2cnc(Nc3ccc(N4CCNCC4)cn3)nc2n(C2CCCC2)c1=O [Palbociclib] (partner 0.5 µM)
Outline: as §1

[3] = compound: COc1cc(-c2nn([C@H]3CC[C@H](N4CCN(C(C)=O)CC4)CC3)c3ncnc(N)c23)ccc1NC(=O)c1cc2ccccc2n1C + CC(C)C[C@H](NC(=O)[C@H](Cc1ccccc1)NC(=O)c1cnccn1)B(O)O [Bortezomib] (partner 0.002 µM)
Outline: as §1

[4] = compound: COc1cc(-c2nn([C@H]3CC[C@H](N4CCN(C(C)=O)CC4)CC3)c3ncnc(N)c23)ccc1NC(=O)c1cc2ccccc2n1C + CS(=O)(=O)CCNCc1ccc(-c2ccc3ncnc(Nc4ccc(OCc5cccc(F)c5)c(Cl)c4)c3c2)o1 [Lapatinib] (partner 2 µM)
Outline: as §1

[5] = compound: COc1cc(-c2nn([C@H]3CC[C@H](N4CCN(C(C)=O)CC4)CC3)c3ncnc(N)c23)ccc1NC(=O)c1cc2ccccc2n1C + NC(=O)Nc1cc(-c2cccc(F)c2)sc1C(=O)N[C@H]1CCCNC1 [AZD7762] (partner 0.2 µM)
Outline: as §1

Row | Cell Line | relative viability ([1]; first compound 0.01 µM) | relative viability ([1]; first compound 0.03162 µM) | relative viability ([1]; first compound 0.1 µM) | relative viability ([1]; first compound 0.3162 µM) | relative viability ([2]; first compound 0.0128 µM) | relative viability ([2]; first compound 0.04048 µM) | relative viability ([2]; first compound 0.128 µM) | relative viability ([2]; first compound 1.28 µM) | relative viability ([3]; first compound 0.0128 µM) | relative viability ([3]; first compound 0.04048 µM) | relative viability ([3]; first compound 0.128 µM) | relative viability ([3]; first compound 1.28 µM) | relative viability ([4]; first compound 0.0128 µM) | relative viability ([4]; first compound 0.04048 µM) | relative viability ([4]; first compound 0.128 µM) | relative viability ([4]; first compound 1.28 µM) | relative viability ([5]; first compound 0.0128 µM) | relative viability ([5]; first compound 0.04048 µM) | relative viability ([5]; first compound 0.128 µM) | relative viability ([5]; first compound 1.28 µM)
1 | COR-L23 | 0.706 | 0.681 | 0.795 | 0.802 | 0.324 | 0.253 | 0.313 | 0.24 | 0.991 | 1.4 | 0.873 | 0.908 | 0.933 | 1.2 | 0.789 | 0.992 |  |  |  | 
2 | COR-L 105 | 0.793 | 0.548 | 0.607 | 0.551 | 0.388 | 0.474 | 0.4 | 0.302 | 0.73 | 0.854 | 0.657 | 0.386 | 0.3 | 0.327 | 0.352 | 0.31 |  |  |  | 
3 | NCI-H2023 | 0.426 | 0.385 | 0.41 | 0.302 | 0.436 | 0.358 | 0.318 | 0.293 | 0.977 | 1.11 | 0.897 | 0.905 | 0.856 | 0.782 | 0.923 | 0.845 |  |  |  | 
4 | NCI-H520 | 0.293 | 0.24 | 0.403 | 0.359 | 0.197 | 0.227 | 0.206 | 0.12 | 0.741 | 0.624 | 0.358 | 0.334 | 0.818 | 0.745 | 0.685 | 0.646 |  |  |  | 
5 | A549 |  |  |  |  |  |  |  |  |  |  |  |  | 0.961 | 1.02 | 0.953 | 1.06 |  |  |  | 
6 | NCI-H1563 | 0.766 | 0.727 | 0.72 | 0.745 |  |  |  |  | 0.916 | 0.882 | 0.824 | 0.664 | 1.01 | 0.961 | 0.822 | 0.681 |  |  |  | 
7 | NCI-H2009 | 0.542 | 0.522 | 0.453 | 0.426 | 0.172 | 0.148 | 0.219 | 0.179 | 1.14 | 0.555 | 1.06 | 0.962 | 1.26 | 0.438 | 0.961 | 0.888 |  |  |  | 
8 | NCI-H522 | 0.712 | 0.729 | 0.668 | 0.766 | 1.08 | 0.864 | 0.822 | 0.778 |  |  |  |  |  |  |  |  | 0.73 | 0.848 | 0.909 | 0.892
9 | IA-LM |  |  |  |  |  |  |  |  | 0.847 | 1.07 | 0.896 | 0.631 | 0.83 | 1.16 | 0.79 | 1.15 |  |  |  | 
10 | SK-LU-1 | 0.347 | 0.333 | 0.321 | 0.271 | 0.41 | 0.369 | 0.357 | 0.249 | 1.53 | 1.22 | 1.17 | 0.783 | 0.913 | 0.902 | 0.721 | 0.681 |  |  |  | 
11 | SW 900 | 0.541 | 0.484 | 0.75 | 0.478 | 0.564 | 0.584 | 0.538 | 0.353 |  |  |  |  |  |  |  |  | 0.547 | 0.564 | 0.612 | 0.402
